For this test, the target named is human chemokine receptor CXCR7 (Homo sapiens (Human), UniProt P25106). The test is described as follows: Tango CXCR7-bla U2OS beta-arrestin recruitment assay (beta-lactamase reporter, FRET), antagonism of CXCL12/SDF1-α.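 Also: compounds preincubated 15 min before CXCL12 addition, then 22 h at 37 °C, FRET emission ratio read with CCF4-AM substrate after 2 h.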 The test is classed as cell-based. The note with it: antagonistic effect on CXCR7; Tango CXCR7-bla U2OS cells, CXCL12/SDF1-α at its EC80. A general note: Activated receptors often draw arrestin, which recruitment assays turn into a signal.
Sequence of human chemokine receptor CXCR7 (P25106 whole entry): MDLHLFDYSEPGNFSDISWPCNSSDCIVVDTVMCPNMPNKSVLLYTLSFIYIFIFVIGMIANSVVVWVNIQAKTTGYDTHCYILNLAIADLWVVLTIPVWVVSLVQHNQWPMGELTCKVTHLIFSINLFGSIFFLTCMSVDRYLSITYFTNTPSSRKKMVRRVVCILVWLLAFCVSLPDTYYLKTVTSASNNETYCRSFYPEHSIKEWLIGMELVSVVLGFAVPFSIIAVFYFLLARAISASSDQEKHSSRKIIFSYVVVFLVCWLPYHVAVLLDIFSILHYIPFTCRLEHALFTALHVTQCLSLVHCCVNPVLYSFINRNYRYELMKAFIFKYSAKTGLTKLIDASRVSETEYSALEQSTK
Regarding `Cc1cccc([C@H](C)NC(=O)[C@@H]2CN(C3CCCCC3)CC[C@H]2NC(=O)c2cc(-c3ccc(F)cc3F)on2)n1` (single isomer, unassigned) [Example 1.188.d, (3R*,4R*)-1-Cyclohexyl-4-{[5-(2,4-difluoro-phenyl)-isoxazole-3-carbonyl]-amino}-piperidine-3-carboxylic acid [(S)-1-(6-methyl-pyridin-2-yl)-ethyl]-amide], inhibition was half-maximal at 362 nM (IC50).

Take `O=C(N[C@H]1CCN(CC2CC2)C[C@@H]1C(=O)NC1(c2ccncc2)CC1)c1cc(-c2ccc(F)cc2F)on1` [Example 4.027]: the IC50 (usually the concentration needed to halve the response being measured) stood at 8 nM.

Consider `C[C@@H](NC(=O)[C@@H]1CN(C2CCCC2)CC[C@H]1NC(=O)c1cc(-c2c(F)cc(F)cc2F)on1)c1cnccn1` [Example 1.13], for which the IC50 is 140 nM.

`O=C(N[C@H]1CCN(CC2CC2)C[C@@H]1C(=O)NC1(c2ncccc2F)CC1)c1cc(-c2ccc(F)cc2F)on1` [Example 4.054] yielded an IC50 of 1 nM.

For the compound `CN(C)C(=O)[C@@H]1CN(C2CCCCC2)CC[C@H]1NC(=O)c1ncc(-c2ccc(F)cc2F)o1` (racemic) [Example 3.018, rac-(3R*,4R*)-1-Cyclohexyl-4-{[5-(2,4-difluoro-phenyl)-oxazole-2-carbonyl]-amino}-piperidine-3-carboxylic acid dimethylamide], the 50% inhibitory concentration (IC50) turned out to be 198 nM.

`Cn1cc(C(C)(C)NC(=O)[C@H]2CN(CC3CC3)CC[C@@H]2NC(=O)c2cc(-c3ccc(F)cc3F)on2)cn1` [Example 4.043] returned a half-inhibitory concentration (IC50) of 158 nM.

In the case of `CC1(NC(=O)[C@@H]2CN(C3CCCCC3)CC[C@H]2NC(=O)c2cc(-c3ccc(F)cc3F)on2)CC(F)(F)C1` (relative stereo) [Example 1.087, rac-(3R*,4R*)-1-Cyclohexyl-4-{[5-(2,4-difluoro-phenyl)-isoxazole-3-carbonyl]-amino}-piperidine-3-carboxylic acid (3,3-difluoro-1-methyl-cyclobutyl)-amide], the IC50 amounted to 943 nM.

Turning to `CN(C)C(=O)[C@@H]1CN(CC2CC2)CC[C@H]1NC(=O)c1cc(-c2ccc(F)cc2F)on1` [Example 2.029], the IC50 is 60 nM.

For `O=C(N[C@H]1CCN(C2CCCC2)C[C@@H]1C(=O)NC1(c2cccnn2)CC1)c1cc(-c2ccc(F)cc2F)on1` [Example 1.182, (3S,4S)-1-Cyclopentyl-4-{[5-(2,4-difluoro-phenyl)-isoxazole-3-carbonyl]-amino}-piperidine-3-carboxylic acid (1-pyridazin-3-yl-cyclopropyl)-amide], inhibition was half-maximal at 218 nM (IC50).

Consider `CN(CCc1ccccn1)C(=O)[C@@H]1CN(C2CCCCC2)CC[C@H]1NC(=O)c1cc(-c2ccc(F)cc2F)on1` (racemic) [Example 1.075, rac-(3R*,4R*)-1-Cyclohexyl-4-{[5-(2,4-difluoro-phenyl)-isoxazole-3-carbonyl]-amino}-piperidine-3-carboxylic acid methyl-(2-pyridin-2-yl-ethyl)-amide], for which the IC50 came to 44 nM.

`CO[C@@H]1CCC[C@@H](N2CC[C@@H](NC(=O)c3cc(-c4ccc(F)cc4F)on3)[C@H](C(=O)N(C)C)C2)C1` [Example 2.032] registered an IC50 of 192 nM.

Take `C[C@@H](NC(=O)[C@@H]1CN(C2CCCCC2)CC[C@H]1NC(=O)c1noc(-c2ccc(F)cc2F)n1)c1ccccn1` (relative stereo) [Example 1.156, (3R*,4R*)-1-Cyclohexyl-4-{[5-(2,4-difluoro-phenyl)-[1,2,4]oxadiazole-3-carbonyl]-amino}-piperidine-3-carboxylic acid ((R)-1-pyridin-2-yl-ethyl)-amide]: the IC50 is 92 nM.

In the case of `C[C@@H]1CCC[C@H]1N1CC[C@@H](NC(=O)c2cc(-c3ccc(F)cc3F)no2)[C@H](C(=O)N[C@H](C)c2ccccn2)C1` (relative stereo) [Example 1.155, (3R*,4R*)-4-{[3-(2,4-Difluoro-phenyl)-isoxazole-5-carbonyl]-amino}-1-((1RS,2RS)-2-methyl-cyclopentyl)-piperidine-3-carboxylic acid ((R)-1-pyridin-2-yl-ethyl)-amide], the IC50 turned out to be 315 nM.

Take `C[C@@H](NC(=O)[C@@H]1CN(C2CCCCC2)CC[C@H]1NC(=O)c1cc(-c2ccc(F)cc2F)no1)c1ccccn1` (relative stereo) [Example 1.125, (3R*,4R*)-1-Cyclohexyl-4-{[3-(2,4-difluoro-phenyl)-isoxazole-5-carbonyl]-amino}-piperidine-3-carboxylic acid ((R)-1-pyridin-2-yl-ethyl)-amide]: inhibition was half-maximal at 81 nM (IC50).

Consider `CN(C)C(=O)[C@@H]1CN(C2CCCCC2)CC[C@H]1NC(=O)c1cc(-c2ccc(Cl)cc2F)on1` (racemic) [Example 3.006, rac-(3R*,4R*)-4-{[5-(4-Chloro-2-fluoro-phenyl)-isoxazole-3-carbonyl]-amino}-1-cyclohexyl-piperidine-3-carboxylic acid dimethylamide], for which the IC50 is 108 nM.

Turning to `CCN1CC[C@H](NC(=O)c2nnc(-c3ccc(F)cc3F)s2)[C@@H](C(=O)NC2(c3ncccn3)CC2)C1` [Example 2.107], the IC50 is 114 nM.

On to `O=C(N[C@@H]1CCN(CC2CC2)C[C@H]1C(=O)NCc1ncccn1)c1cc(-c2ccc(F)cc2F)on1` [Example 4.099], for which the midpoint of inhibition, the IC50, lay at 852 nM.

On to `O=C(N[C@H]1CCN(CC2CC2)C[C@@H]1C(=O)NC1(c2cccc(F)c2)CC1)c1cc(-c2ccc(F)cc2F)on1` [Example 4.063], for which half-maximal inhibition (IC50) required 142 nM.

Regarding `O=C(N[C@H]1CCN(C2CCC2)C[C@@H]1C(=O)NC1(c2cccc(Cl)c2)COC1)c1cc(-c2ccc(F)cc2F)on1` [Example 4.097], the midpoint of inhibition, the IC50, lay at 80 nM.

`CCNC(=O)[C@@H]1CN(C2CCCCC2)CC[C@H]1NC(=O)c1cc(-c2ccc(F)cc2F)on1` (racemic) [Example 1.012, rac-(3R*,4R*)-1-Cyclohexyl-4-{[5-(2,4-difluoro-phenyl)-isoxazole-3-carbonyl]-amino}-piperidine-3-carboxylic acid ethylamide] came in with a half-maximal inhibitory concentration (IC50) of 58 nM.

Compound “(3R*,4R*)-1-Cyclopentyl-4-{[1-(2,4-difluoro-phenyl)-1H-[1,2,3]triazole-4-carbonyl]-amino}-piperidine-3-carboxylic acid ((1S*,2R*)-2-phenyl-cyclopropyl)-amide and (3R*,4R*)-1-Cyclopentyl-4-{[1-(2,4-difluoro-phenyl)-1H-[1,2,3]triazole-4-carbonyl]-amino}-piperidine-3-carboxylic acid ((1R*,2S*)-2-phenyl-cyclopropyl)-amide [Example 1.146]” displayed an IC50 of 904 nM.

Compound `C[C@@H](NC(=O)[C@@H]1CN(C2CCCC2)CC[C@H]1NC(=O)c1cn(-c2ccc(F)cc2F)nn1)c1cnccn1` (relative stereo) [Example 1.128, (3R*,4R*)-1-Cyclopentyl-4-{[1-(2,4-difluoro-phenyl)-1H-[1,2,3]triazole-4-carbonyl]-amino}-piperidine-3-carboxylic acid ((R)-1-pyrazin-2-yl-ethyl)-amide] displayed a concentration for half-maximal inhibition (IC50) of 124 nM.

`C[C@@H](NC(=O)[C@@H]1CN(C2CCCCC2)CC[C@H]1NC(=O)c1cc(-c2c(F)cc(F)cc2F)on1)c1cnccn1` (racemic) [Example 1.129, (3R*,4R*)-1-Cyclohexyl-4-{[5-(2,4,6-trifluoro-phenyl)-isoxazole-3-carbonyl]-amino}-piperidine-3-carboxylic acid ((R)-1-pyrazin-2-yl-ethyl)-amide] returned an IC50 of 105 nM.

In turn, `CN(C)C(=O)[C@@H]1CN(CC2CC2)CC[C@H]1NC(=O)c1cc(-c2c(F)cc(F)cc2F)on1` [Example 1.1] gave an IC50 of 128 nM.

In turn, `C[C@@H](NC(=O)[C@@H]1CN(C2CCCC2)CC[C@H]1NC(=O)c1cc(-c2c(F)cc(F)cc2F)on1)C1CCC1` (single isomer, unassigned) [Example 1.138b, (3R*,4R*)-1-Cyclopentyl-4-{[5-(2,4,6-trifluoro-phenyl)-isoxazole-3-carbonyl]-amino}-piperidine-3-carboxylic acid ((R)-1-cyclobutyl-ethyl)-amide] showed an IC50 of 83 nM.

Regarding `C[C@H]([C@@H](C)O)N1CC[C@@H](NC(=O)c2cc(-c3ccc(F)cc3F)on2)[C@H](C(=O)N(C)C)C1` [Example 2.049], 709 nM corresponded to half-maximal inhibition (IC50).

Regarding `COCC(C)(C)NC(=O)[C@@H]1CN(C2CCCCC2)CC[C@H]1NC(=O)c1cc(-c2c(F)cc(F)cc2F)on1` (racemic) [Example 1.111, rac-(3R*,4R*)-1-Cyclohexyl-4-{[5-(2,4,6-trifluoro-phenyl)-isoxazole-3-carbonyl]-amino}-piperidine-3-carboxylic acid (2-methoxy-1,1-dimethyl-ethyl)-amide], inhibition was half-maximal at 332 nM (IC50).

In the case of `CN(CCc1ccccc1)C(=O)[C@@H]1CN(CC2CC2)CC[C@H]1NC(=O)c1cc(-c2ccc(F)cc2F)on1` [Example 2.006], the IC50 stood at 15 nM.

Compound `CON(C)C(=O)[C@@H]1CN(CC2CC2)CC[C@H]1NC(=O)c1cc(-c2ccc(F)cc2F)on1` [Example 4.069] showed an IC50 of 153 nM.

`CC(CO)NC(=O)[C@@H]1CN(C2CCCCC2)CC[C@H]1NC(=O)c1cc(-c2ccc(F)cc2F)on1` (relative stereo) [Example 1.076, (3R*,4R*)-1-Cyclohexyl-4-{[5-(2,4-difluoro-phenyl)-isoxazole-3-carbonyl]-amino}-piperidine-3-carboxylic acid ((1RS)-2-hydroxy-1-methyl-ethyl)-amide] came in with an IC50 of 604 nM.

Compound `CC(C)(C#N)NC(=O)[C@@H]1CN(C2CCCCC2)CC[C@H]1NC(=O)c1cc(-c2ccc(F)cc2F)on1` [Example 4.019] displayed an IC50 of 151 nM.

With `O=C(N[C@H]1CCN(CC2CC2)C[C@@H]1C(=O)NC1(c2ccncn2)CC1)c1cc(-c2ccc(F)cc2F)on1` [Example 4.055], the IC50 worked out at 16 nM.

As to `C[C@@H](NC(=O)[C@H]1CN(C2CCCCC2)CC[C@@H]1NC(=O)c1noc(-c2ccc(F)cc2F)n1)c1ccccn1` (single isomer, unassigned) [Example 1.156a, (3S,4S)-1-Cyclohexyl-4-{[5-(2,4-difluoro-phenyl)-[1,2,4]oxadiazole-3-carbonyl]-amino}-piperidine-3-carboxylic acid ((R)-1-pyridin-2-yl-ethyl)-amide or (3R,4R)-1-Cyclohexyl-4-{[5-(2,4-difluoro-phenyl)-[1,2,4]oxadiazole-3-carbonyl]-amino}-piperidine-3-carboxylic acid ((R)-1-pyridin-2-yl-ethyl)-amide], the midpoint of inhibition, the IC50, lay at 19 nM.

These data come from patent US11306078B2, “Piperidine CXCR7 receptor modulators” (IDORSIA PHARMACEUTICALS LTD., priority 2016, dated 2022).
